From patent publication US20230312556A1, “ARYLAMIDE COMPOUND, PHARMACEUTICAL COMPOSITION COMPRISING SAME, AND PREPARATION METHOD THEREFOR AND USE THEREOF” (SICHUAN KELUN-BIOTECH BIOPHARMACEUTICAL CO., LTD., priority 2020, published 2023)

Legend:
wild-type BRAF enzyme = wild-type BRAF enzyme (Homo sapiens (Human), UniProt P15056); test: RAF inhibition assay (TB-PMAP2K1 kit), wild-type BRAF; format: biochemical; details: FLUORESCEIN-MAP2K1 substrate, 60 min reaction
Method: Assay protocol: the inhibitory effects of the compounds of the present invention on the wild-type BRAF enzyme, mutant CRAF enzyme (RAF1 Y340D and Y341D) and mutant BRAF enzyme (BRAF-V600E) activity were determined according to the instructions of the TB-PMAP2K1 (PSER217/221) kit (ThermoFisher). Different RAF enzymes and substrates (FLUORESCEIN-MAP2K1) were pre-incubated with test compounds at various concentrations at room temperature for 15 min, and then the adenosine triphosphate (ATP) was added to initiate the reaction. After incubation at room temperature for 60 min, EDTA and Tb-labeled anti-pMAP2K1 [pS217/221] antibody solutions were added, and incubation was performed at room temperature for 60 min before the detection of the fluorescence values of the compounds in each group. With the vehicle group (DMSO) as the negative control and the buffer group (without RAF enzyme) as the blank control, the relative inhibitory activity percentage (i.e., the inhibition rate) of a compound at different concentrations was calculated according to the following formula:
Relative inhibitory activity percentage=1−(Compound group at various concentrations−blank control)/(negative control−blank control)*100%
The relative inhibitory activity percentages of the compounds at different concentrations were plotted against the compound concentrations, the curve was fitted according to a four-parameter model, and the IC50 value was calculated according to the following formula:
y=min+(max−min)/(1+(x/IC50)^(−Hillslope))
wherein y is the relative inhibitory activity percentage, max and min are respectively the maximum and minimum values of the fitted curve, x is the logarithm concentration of the compound, and Hillslope is the slope of the curve.

[1] = tested on: human hepatocellular carcinoma cell HepG2 (NRAS-Q61K mutation); test: Cancer cell proliferation inhibition assay, HepG2; format: cell-based; details: 72 h incubation, Cell Titer Glo
From the text: (§1) The inhibitory effects of the compounds of the present invention on cancer cell proliferation were further evaluated by testing the effects of the compounds of the present invention on the growth of cancer cells.
(§2) In this example, human melanoma cell A375 (BRAF-V600E mutation, purchased from the Cell Bank of the Chinese Academy of Sciences) and human hepatocellular carcinoma cell HepG2 (NRAS-Q61K mutation, purchased from ATCC, USA) were employed.
(§3) In this example, the test compounds at various concentrations (100000 nM, 30000 nM, 10000 nM, 3000 nM, 1000 nM, 300 nM, 100 nM, 30 nM, 10 nM) were added to the above cells, and the incubation was performed for 72 h. The inhibitory activity of the compounds was tested by measuring ATP in living cells using the Cell Titer Glo Kit (Promega).
(§4) The IC50 values of the compounds of the present invention for each tested cell were determined, and the test results are as follows: […]

[2] = tested on: human melanoma cell A375 (BRAF-V600E mutation); test: Cancer cell proliferation inhibition assay, A375; format: cell-based; details: A-375, 72 h incubation, Cell Titer Glo
From the text: as §1, §2, §3, §4

[3] = Pharmacokinetic test in Balb/c mice; format: in vivo
Method: The compounds were administered to female Balb/c mice by gavage (PO) to investigate the pharmacokinetic profile.
Compound 1 of the present invention and HM95573 (prepared according to Example 116 in CN104039798B) were administered via PO; the administration dosage was 10 mg/kg, and the administration vehicle was a 20% aqueous solution of hydroxypropyl-β-cyclodextrin. Blood samples were collected before the administration (0 h) and at 0.25, 0.5, 1, 2, 4, 6, 8, 24, 48, and 72 h after the administration; 50-70 μL of blood was drawn from the orbit and spotted on Whatman 903 card, which was air-dried at room temperature for testing. After the testing, the samples were placed in a sealed dry box and stored at −80° C. (DBS samples). The DBS samples were punched with a 6 mm punch, then 80 μL of 50% acetonitrile-water was added and shaken (800 rpm, 10 min), followed by sonication for 10 min, then 350 μL of acetonitrile containing internal standard was added and shaken (700 rpm, 10 min). After sonication for 10 min, the samples were centrifuged at 4000 rpm and 4° C. for 10 min, and the supernatant was collected for LC-MS/MS analysis. The pharmacokinetic parameters were calculated using the WinNonlin 6.3 software and employing a non-compartmental model, and the results are shown in Table 6.

[4] = Pharmacokinetic test in Beagle dogs; format: in vivo
Method: The compounds were administered to male Beagle dogs by gavage (PO) to investigate the pharmacokinetic profile.
Compound 1 of the present invention and HM95573 were administered via PO; the administration dosage was 2.5 mg/kg, and the solvent was a 20% aqueous solution of hydroxypropyl-β-cyclodextrin. Blood samples were collected before the administration (0 h) and at 0.25, 0.5, 1, 2, 4, 6, 8, 24, 48, and 72 hours after the administration, and 1 mL blood was collected from the limbs vein and placed in a K2-EDTA anticoagulation tube. After centrifugation at 4000 rpm for 5 min (4° C.), the plasma was separated and stored at −80° C. for testing. The plasma samples were processed by precipitating proteins, and then subjected to LC-MS/MS analysis. The pharmacokinetic parameters were calculated using the WinNonlin 6.3 software and employing a non-compartmental model, and the results are shown in Table 7.

[5] = mouse, whole blood (dried blood spots), female Balb/c mice, PO, 10 mg/kg, DBS samples
[6] = dog, male Beagle dogs, PO, 2.5 mg/kg, plasma
[7] = female Balb/c mice, PO, 10 mg/kg, DBS samples
[8] = male Beagle dogs, PO, 2.5 mg/kg, plasma

Chain of wild-type BRAF enzyme (P15056 whole entry): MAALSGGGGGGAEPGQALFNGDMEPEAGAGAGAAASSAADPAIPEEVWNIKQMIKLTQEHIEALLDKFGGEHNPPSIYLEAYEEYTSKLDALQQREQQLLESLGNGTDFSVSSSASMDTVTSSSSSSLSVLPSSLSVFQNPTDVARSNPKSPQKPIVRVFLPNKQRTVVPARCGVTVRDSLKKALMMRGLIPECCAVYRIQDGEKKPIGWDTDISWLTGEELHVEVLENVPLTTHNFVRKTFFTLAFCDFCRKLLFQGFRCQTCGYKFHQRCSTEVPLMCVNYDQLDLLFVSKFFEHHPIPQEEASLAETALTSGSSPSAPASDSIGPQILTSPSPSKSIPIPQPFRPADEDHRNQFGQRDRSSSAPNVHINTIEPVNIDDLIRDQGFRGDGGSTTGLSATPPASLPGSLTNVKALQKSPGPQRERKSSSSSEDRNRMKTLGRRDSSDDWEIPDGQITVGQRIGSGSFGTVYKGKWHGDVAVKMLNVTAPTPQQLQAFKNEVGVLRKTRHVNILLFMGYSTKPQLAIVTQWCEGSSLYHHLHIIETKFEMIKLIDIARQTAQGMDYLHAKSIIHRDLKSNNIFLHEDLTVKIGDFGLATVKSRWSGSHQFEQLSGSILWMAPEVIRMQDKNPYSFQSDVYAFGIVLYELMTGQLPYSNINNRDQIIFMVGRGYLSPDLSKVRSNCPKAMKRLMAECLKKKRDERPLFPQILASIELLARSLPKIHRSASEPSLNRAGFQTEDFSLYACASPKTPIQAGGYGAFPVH

**Q.** With `Cc1ccc2c(Nc3ccc(F)cc3F)nccc2c1NC(=O)c1cc(F)cc2c(N)ncnc12` [Compound 85, 4-amino-N-(1-((2,4-difluorophenyl)amino)-6-methylisoquinolin-5-yl)-6-fluoroquinazoline-8-carboxamide] as the compound, how does the IC50 (wild-type BRAF enzyme) read?
**A.** 12.9 ± 0.9 nM

**Q.** What about the IC50 [1] of the same compound?
**A.** 40.1 ± 6.97 nM

**Q.** And the IC50 [2]?
**A.** 148 ± 3.8 nM

**Q.** With `Cc1ccc2c(Nc3cc(Cl)ccc3F)nccc2c1NC(=O)c1cccc2c(N)ncnc12` [Compound 73, 4-amino-N-(1-((5-chloro-2-fluorophenyl)amino)-6-methylisoquinolin-5-yl)quinazoline-8-carboxamide] as the compound, how does the IC50 (wild-type BRAF enzyme) read?
**A.** 36.2 ± 16.5 nM

**Q.** What about the IC50 [1] of the same compound?
**A.** 59.6 ± 2.2 nM

**Q.** What about the IC50 [2] of the same compound?
**A.** 109 ± 22.8 nM

**Q.** Which IC50 (wild-type BRAF enzyme) does the source give for `Cc1ccc2c(Nc3cccc(Cl)c3F)nccc2c1NC(=O)c1ccc(F)c2c(N)ncnc12` [Compound 93, 4-amino-N-(1-((3-chloro-2-fluorophenyl)amino)-6-methylisoquinolin-5-yl)-5-fluoroquinazoline-8-carboxamide] here?
**A.** 13.5 ± 1.02 nM

**Q.** What about the IC50 [1] of the same compound?
**A.** 62.9 ± 11.3 nM

**Q.** And the IC50 [2]?
**A.** 61.7 ± 3.6 nM

**Q.** With `Cc1ccc2c(Nc3c(F)cc(F)cc3F)nccc2c1NC(=O)c1cccc2c(N)ncnc12` [Compound 94, 4-amino-N-(6-methyl-1-((2,4,6-trifluorophenyl)amino)isoquinolin-5-yl)quinazoline-8-carboxamide] as the compound, how does the IC50 (wild-type BRAF enzyme) read?
**A.** 10.3 ± 1 nM

**Q.** What about the IC50 [1] of the same compound?
**A.** 47.4 ± 6.5 nM

**Q.** What about the IC50 [2] of the same compound?
**A.** 58.8 ± 5.6 nM

**Q.** For `Cc1ccc2c(Cc3cccc(C(F)(F)F)c3)nccc2c1NC(=O)c1csc2c(N)ncnc12` [Compound 19, 4-amino-N-(6-methyl-1-(3-(trifluoromethyl)benzyl)isoquinolin-5-yl)thieno[3,2-d]pyrimidine-7-carboxamide], which IC50 (wild-type BRAF enzyme) is on record?
**A.** 21.6 ± 4.85 nM

**Q.** And the IC50 [1]?
**A.** 136 ± 21.3 nM

**Q.** And the IC50 [2]?
**A.** 163 ± 21.3 nM

**Q.** With `Nc1ncnc2c(C(=O)Nc3c(F)ccc4c(Nc5cccc(Cl)c5F)nccc34)cccc12` [Compound 92, 4-amino-N-(1-((3-chloro-2-fluorophenyl)amino)-6-fluoroisoquinolin-5-yl)quinazoline-8-carboxamide] as the compound, how does the IC50 (wild-type BRAF enzyme) read?
**A.** 21.8 ± 3.89 nM

**Q.** What about the IC50 [1] of the same compound?
**A.** 49.8 ± 4.3 nM

**Q.** And the IC50 [2]?
**A.** 128 ± 8 nM

**Q.** What does the source list for `Cc1ccc2c(Nc3cc(S(C)(=O)=O)ccc3F)nccc2c1NC(=O)c1cccc2c(N)ncnc12` [Compound 89, 4-amino-N-(1-((2-fluoro-5-(methylsulfonyl)phenyl)amino)-6-methylisoquinolin-5-yl)quinazoline-8-carboxamide]?
**A.** IC50 (wild-type BRAF enzyme): 20.4 ± 1.3 nM; IC50 [1]: 106 ± 25.2 nM; IC50 [2]: 111 ± 5.2 nM

**Q.** For `COc1ccc(Nc2nccc3c(NC(=O)c4cccc5c(N)ncnc45)c(C)ccc23)c(F)c1` [Compound 60, 4-amino-N-(1-((2-fluoro-4-methoxyphenyl)amino)-6-methylisoquinolin-5-yl)quinazoline-8-carboxamide], which IC50 (wild-type BRAF enzyme) is on record?
**A.** 8.48 ± 0.9 nM

**Q.** And the IC50 [1]?
**A.** 34.1 ± 4.32 nM

**Q.** And the IC50 [2]?
**A.** 28 ± 3.12 nM

**Q.** For `Cc1ccc2c(Nc3cccc(Cl)c3F)nccc2c1NC(=O)c1cccc2c(N)ncnc12` [Compound 1, 4-amino-N-(1-((3-chloro-2-fluorophenyl)amino)-6-methylisoquinolin-5-yl)quinazoline-8-carboxamide], which IC50 (wild-type BRAF enzyme) is on record?
**A.** 18.7 ± 2.71 nM

**Q.** And the IC50 [1]?
**A.** 71.3 ± 5.5 nM

**Q.** And the IC50 [2]?
**A.** 29.3 ± 2.3 nM

**Q.** And the “Conclusion on pharmacokinetics in mice” value ([3]; mice after PO administration)?
**A.** Conclusion: compound 1 of the present invention has a high maximum plasma concentration and a high exposure in mice after PO administration.

**Q.** What about the AUC(0-t) [3, 5] of the same compound?
**A.** 172000 ± 18300 ng·h/mL

**Q.** What about the half-life [3, 5] of the same compound?
**A.** 8.33 ± 0.95 h

**Q.** And the Cmax ([3]; mouse, whole blood (dried blood spots), female Balb/c mice, PO, 10 mg/kg, DBS samples, read-out: Cmax)?
**A.** 8240 ± 586 ng/mL

**Q.** And the Tmax ([3]; mouse, whole blood (dried blood spots), female Balb/c mice, PO, 10 mg/kg, DBS samples, read-out: Tmax)?
**A.** 1.67 ± 0.58 h

**Q.** What about the AUC(0-t) [4, 6] of the same compound?
**A.** 31000 ± 4240 ng·h/mL

**Q.** What about the half-life [4, 6] of the same compound?
**A.** 15.4 ± 4.1 h

**Q.** What about the Cmax ([4]; dog, male Beagle dogs, PO, 2.5 mg/kg, plasma, read-out: Cmax) of the same compound?
**A.** 1800 ± 127 ng/mL

**Q.** And the Tmax ([4]; dog, male Beagle dogs, PO, 2.5 mg/kg, plasma, read-out: Tmax)?
**A.** 1 h

**Q.** What about the “Conclusion on pharmacokinetics in dogs” value ([4]; dogs after PO administration) of the same compound?
**A.** Conclusion: Compound 1 of the present invention has a high maximum plasma concentration, high exposure, long half-life and good overall PK properties in dogs after PO administration.

**Q.** With `Cc1ccc2c(Nc3cccc(Cl)c3)nccc2c1NC(=O)c1cccc2c(N)ncnc12` [Compound 38, 4-amino-N-(1-((3-chlorophenyl)amino)-6-methylisoquinolin-5-yl)quinazoline-8-carboxamide] as the compound, how does the IC50 (wild-type BRAF enzyme) read?
**A.** 23.2 ± 2.67 nM

**Q.** What about the IC50 [1] of the same compound?
**A.** 38.1 ± 3.6 nM

**Q.** And the IC50 [2]?
**A.** 96.7 ± 14.3 nM

**Q.** Which IC50 (wild-type BRAF enzyme) does the source give for `Cc1ccc2c(Nc3ccc(F)cc3F)nccc2c1NC(=O)c1cccc2c(N)ncnc12` [Compound 67, 4-amino-N-(1-((2,4-difluorophenyl)amino)-6-methylisoquinolin-5-yl)quinazoline-8-carboxamide] here?
**A.** 13.2 ± 1.67 nM

**Q.** What about the IC50 [1] of the same compound?
**A.** 56.7 ± 9.3 nM

**Q.** And the IC50 [2]?
**A.** 184 ± 16.9 nM

**Q.** For `Cc1ccc2c(Nc3cccc(Cl)c3F)nccc2c1NC(=O)c1csc2c(N)ncnc12` [HM95573, reference compound], which AUClast [3, 7] is on record?
**A.** 110760 ± 9636 ng·h/mL

**Q.** And the Cmax [3, 7]?
**A.** 4710 ± 806 ng/mL

**Q.** And the T1/2 [3, 7]?
**A.** 9.57 ± 0.58 h

**Q.** And the Tmax [3, 7]?
**A.** 1.67 ± 0.58 h

**Q.** And the AUClast [4, 8]?
**A.** 13080 ± 6254 ng·h/mL

**Q.** And the Cmax [4, 8]?
**A.** 989 ± 411 ng/mL

**Q.** And the T1/2 [4, 8]?
**A.** 8.43 ± 1.76 h

**Q.** What about the Tmax [4, 8] of the same compound?
**A.** 1.33 ± 0.58 h
